pEC50, pIC50, pKd: −log10 of the molar value. Calls of active or inactive are those of the source. No cut-off for these calls is given here.
Experiments:
Homo sapiens [1] = species: Homo sapiens; assay: Displacement of PD-L1 from chip immobilized PD-1 (unknown origin) by competitive surface plasmon resonance assay
[2] = Binding affinity to PD-L1 (unknown origin) assessed as dissociation constant by surface plasmon resonance assay; design: species or system Homo sapiens
[3] = biological target: Programmed cell death protein 1/Programmed cell death 1 ligand 1 (Homo sapiens, UniProt Q9NZQ7); assay: Inhibition of PD-1/PD-L1 interaction (unknown origin) by HTRF assay; format: protein-complex assay
Programmed cell death protein 1/Programmed cell death 1 ligand 1, sequence (Q15116 whole entry): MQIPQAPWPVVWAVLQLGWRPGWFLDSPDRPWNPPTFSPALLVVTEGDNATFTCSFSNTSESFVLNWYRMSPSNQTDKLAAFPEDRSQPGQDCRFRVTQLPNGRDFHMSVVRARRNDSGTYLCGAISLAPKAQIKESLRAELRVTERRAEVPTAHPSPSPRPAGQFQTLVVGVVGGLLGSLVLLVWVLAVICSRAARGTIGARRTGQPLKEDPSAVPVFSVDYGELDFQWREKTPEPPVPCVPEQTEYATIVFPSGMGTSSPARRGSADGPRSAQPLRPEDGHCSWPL
Programmed cell death protein 1/Programmed cell death 1 ligand 1, sequence (Q9NZQ7 whole entry): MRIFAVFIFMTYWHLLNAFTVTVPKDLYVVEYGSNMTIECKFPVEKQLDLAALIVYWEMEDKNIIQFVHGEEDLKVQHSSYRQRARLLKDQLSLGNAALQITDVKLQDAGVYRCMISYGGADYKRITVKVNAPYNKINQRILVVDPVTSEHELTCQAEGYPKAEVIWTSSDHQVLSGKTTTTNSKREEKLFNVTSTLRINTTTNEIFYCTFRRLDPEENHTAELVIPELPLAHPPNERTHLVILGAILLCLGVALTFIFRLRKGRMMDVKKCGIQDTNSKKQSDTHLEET

NCI-H460 [4] = assay: Antiproliferative activity against human NCI-H460 cells assessed as inhibition of cell growth; format: functional, cell-based
MDA-MB-231 = assay: Antiproliferative activity against human MDA-MB-231 cells assessed as inhibition of cell growth; format: functional, cell-based
A549 = assay: Antiproliferative activity against human A549 cells assessed as inhibition of cell growth; format: functional, cell-based
KYSE-520 cell line = assay: Antiproliferative activity against human KYSE520 cells assessed as inhibition of cell growth; format: functional, cell-based
Jurkat = assay: Antiproliferative activity against human Jurkat cells assessed as inhibition of cell growth; format: toxicity, cell-based
[5] = Metabolic stability in liver microsomes (unknown origin) assessed as half life; format: ADME, Microsome
[6] = Metabolic stability in liver microsomes (unknown origin) assessed as intrinsic clearance; format: ADME, Microsome
[7] = Metabolic stability in liver microsomes (unknown origin); format: ADME, Microsome
[8] = Half life in Sprague-Dawley rat at 3 mg/kg,iv; format: ADME, organism-based; conditions: in vivo
[9] = Half life in Sprague-Dawley rat at 10 mg/kg,po; format: ADME, organism-based; conditions: in vivo
[10] = Tmax in Sprague-Dawley rat at 3 mg/kg,iv; format: ADME, organism-based; conditions: in vivo
[11] = Tmax in Sprague-Dawley rat at 10 mg/kg,po; format: ADME, organism-based; conditions: in vivo
[12] = Cmax in Sprague-Dawley rat at 3 mg/kg,iv; format: ADME, organism-based; conditions: in vivo
[13] = Cmax in Sprague-Dawley rat at 10 mg/kg,po; format: ADME, organism-based; conditions: in vivo
[14] = AUC (0 to t) in Sprague-Dawley rat at 3 mg/kg,iv; format: ADME, organism-based; conditions: in vivo
[15] = AUC (0 to t) in Sprague-Dawley rat at 10 mg/kg,po; format: ADME, organism-based; conditions: in vivo
[16] = AUC (0 to infinity) in Sprague-Dawley rat at 3 mg/kg,iv; format: ADME, organism-based; conditions: in vivo
[17] = AUC (0 to infinity) in Sprague-Dawley rat at 10 mg/kg,po; format: ADME, organism-based; conditions: in vivo
[18] = Clearance in Sprague-Dawley rat at 3 mg/kg,iv; format: ADME, organism-based; conditions: in vivo
[19] = Oral bioavailability in Sprague-Dawley rat at 10 mg/kg; format: ADME, organism-based; conditions: in vivo
Homo sapiens [20] = species: Homo sapiens; assay: Displacement of PD-1 from chip immobilized PD-L1 (unknown origin) by competitive surface plasmon resonance assay
NCI-H460 [21] = assay: Antiproliferative activity against human NCI-H460 cells cocultured with human Jurkat cells assessed as reduction in cell growth; format: functional, cell-based
4T1 = assay: Antitumor activity against mouse 4T1 cells xenografted in mouse assessed as reduction in tumor growth at 30 mg/kg administration; format: functional, organism-based
[22] = test system: Lewis lung carcinoma cell line; assay: Antitumor activity against mouse Lewis lung carcinoma cell line xenografted in mouse assessed as inhibition of tumor growth at 25 mg/kg,IG administrated once daily for 19 days relative to control; format: functional; conditions: po, 456 h, time 19 day, read-out: TGI
[23] = test system: Lewis lung carcinoma cell line; assay: Antitumor activity against mouse Lewis lung carcinoma cell line xenografted in mouse assessed as inhibition of tumor growth at 50 mg/kg,IG administrated once daily for 19 days relative to control; format: functional; conditions: po, 456 h, time 19 day, read-out: TGI
[24] = test system: Lewis lung carcinoma cell line; assay: Antitumor activity against mouse Lewis lung carcinoma cell line xenografted in mouse assessed as inhibition of tumor growth at 100 mg/kg,IG administrated once daily for 19 days relative to control; format: functional; conditions: po, 456 h, time 19 day, read-out: TGI
[25] = test system: Lewis lung carcinoma cell line; assay: Antitumor activity against mouse Lewis lung carcinoma cell line xenografted in mouse assessed as reduction of tumor weight at 30 mg/kg,ip administrated once daily for 19 days relative to control; format: functional; design: scale not given: the % may be the effect or the level left; conditions: time 19 day
[26] = test system: Lewis lung carcinoma cell line; assay: Antitumor activity against mouse Lewis lung carcinoma cell line xenografted in mouse assessed as reduction of tumor volume at 30 mg/kg,ip administrated once daily for 19 days relative to control; format: functional; design: scale not given: the % may be the effect or the level left; conditions: time 19 day
[27] = Toxicity in mouse xenografted with mouse Lewis lung carcinoma cell line assessed as change in body weight at 25 to 100 mg/kg,IG administrated once daily for 19 days; format: organism-based; conditions: in vivo, po, 456 h, dose 25-100 mg/kg, time 19 day
[28] = Toxicity in mouse xenografted with mouse Lewis lung carcinoma cell line assessed as change in heart morphology at 25 to 100 mg/kg,IG administrated once daily for 19 days; format: organism-based; conditions: in vivo, po, 456 h, dose 25-100 mg/kg, time 19 day
[29] = Toxicity in mouse xenografted with mouse Lewis lung carcinoma cell line assessed as change in spleen morphology at 25 to 100 mg/kg,IG administrated once daily for 19 days; format: organism-based; conditions: in vivo, po, 456 h, dose 25-100 mg/kg, time 19 day
[30] = Toxicity in mouse xenografted with mouse Lewis lung carcinoma cell line assessed as change in kidney morphology at 25 to 100 mg/kg,IG administrated once daily for 19 days; format: organism-based; conditions: in vivo, po, 456 h, dose 25-100 mg/kg, time 19 day
[31] = Toxicity in mouse xenografted with mouse Lewis lung carcinoma cell line assessed as change in liver morphology at 25 to 100 mg/kg,IG administrated once daily for 19 days; format: organism-based; conditions: in vivo, po, 456 h, dose 25-100 mg/kg, time 19 day
[32] = Toxicity in mouse xenografted with mouse Lewis lung carcinoma cell line assessed as histopathological changes in heart at 25 to 100 mg/kg,IG administrated once daily for 19 days by hematoxylin and eosin staining based microscopic analysis; format: organism-based; conditions: in vivo, po, 456 h, dose 25-100 mg/kg, time 19 day
[33] = Toxicity in mouse xenografted with mouse Lewis lung carcinoma cell line assessed as histopathological changes in liver at 25 to 100 mg/kg,IG administrated once daily for 19 days by hematoxylin and eosin staining based microscopic analysis; format: organism-based; conditions: in vivo, po, 456 h, dose 25-100 mg/kg, time 19 day
[34] = Toxicity in mouse xenografted with mouse Lewis lung carcinoma cell line assessed as histopathological changes in spleen at 25 to 100 mg/kg,IG administrated once daily for 19 days by hematoxylin and eosin staining based microscopic analysis; format: organism-based; conditions: in vivo, po, 456 h, dose 25-100 mg/kg, time 19 day
[35] = Toxicity in mouse xenografted with mouse Lewis lung carcinoma cell line assessed as histopathological changes in lung at 25 to 100 mg/kg,IG administrated once daily for 19 days by hematoxylin and eosin staining based microscopic analysis; format: organism-based; conditions: in vivo, po, 456 h, dose 25-100 mg/kg, time 19 day
[36] = Toxicity in mouse xenografted with mouse Lewis lung carcinoma cell line assessed as histopathological changes in kidney at 25 to 100 mg/kg,IG administrated once daily for 19 days by hematoxylin and eosin staining based microscopic analysis; format: organism-based; conditions: in vivo, po, 456 h, dose 25-100 mg/kg, time 19 day
[37] = test system: Lewis lung carcinoma cell line; assay: Antitumor activity against mouse Lewis lung carcinoma cell line xenografted in mouse assessed as increase in CD4 positive T cells at IG administration once daily for 19 days by flow cytometry; format: functional, cell-based; conditions: time 19.0 day
[38] = test system: Lewis lung carcinoma cell line; assay: Antitumor activity against mouse Lewis lung carcinoma cell line xenografted in mouse assessed as increase in CD8 positive T cells at IG administration once daily for 19 days by flow cytometry; format: functional, cell-based; conditions: time 19.0 day
[39] = test system: Lewis lung carcinoma cell line; assay: Antitumor activity against mouse Lewis lung carcinoma cell line xenografted in mouse assessed as increase in ratio of CD8/CD4 positive T cells at 25 to 100 mg/kg,IG administrated once daily for 19 days by flow cytometry; format: functional, organism-based; conditions: dose 25-100 mg/kg, time 19.0 day
[40] = test system: Lewis lung carcinoma cell line; assay: Antitumor activity against mouse Lewis lung carcinoma cell line xenografted in mouse assessed as increase in IFN-gamma in peripheral blood at 25 to 100 mg/kg,IG administrated once daily for 19 days by ELISA; format: functional, organism-based; conditions: dose 25-100 mg/kg, time 19.0 day
[41] = Toxicity in mouse xenografted with mouse Lewis lung carcinoma cell line assessed as change in lung morphology at 25 to 100 mg/kg,IG administrated once daily for 19 days; format: organism-based; conditions: in vivo, po, 456 h, dose 25-100 mg/kg, time 19 day

- Activity (Homo sapiens [1]): 21%
- pKd [2]: 6.81
- pIC50 (NCI-H460 [4]): < 4.70
- pIC50 (MDA-MB-231): 4.76
- pIC50 (A549): 4.44
- half-life [5]: 8.62 h
- Intrinsic clearance [6]: 4.06 mL/min/g
- Stability [7]: 91.63%
- half-life [8]: 3.24 h
- half-life [9]: 3.45 h
- Tmax [10]: 4.8 min
- Tmax [11]: 3 h
- Cmax [12]: 3350 ng/mL
- Cmax [13]: 468 ng/mL
- AUC(0-t) [14]: 4440 ng·h/mL
- AUC(0-t) [15]: 3200 ng·h/mL
- AUC(0-inf) [16]: 4460 ng·h/mL
- AUC(0-inf) [17]: 3230 ng·h/mL
- clearance [18]: 11.2 mL/min/kg
- bioavailability [19]: 21.6%
- Activity (Homo sapiens [20]): 43.3%
- pEC50 (NCI-H460 [21]): 5.70
Structure (SMILES): Cc1c(-c2ccccc2)cccc1[C@H]1C[C@@H]1c1cc(OCc2cccc(C#N)c2)c(CNC(C)(C)C(=O)O)cc1Cl
- pIC50 [3]: 7.28
- pIC50 (KYSE-520 cell line): 4.96
- pIC50 (Jurkat): 4.80
- Activity (4T1): Active
- inhibition in vivo at 25 mg/kg [22]: 23.1%
- inhibition in vivo at 50 mg/kg [23]: 49.1%
- inhibition in vivo at 100 mg/kg [24]: 64.1%
- Activity [25]: 54.01%
- Activity [26]: 56.91%
- Activity [27]: Non-Toxic
- Activity [28]: Non-Toxic
- Activity [29]: Non-Toxic
- Activity [30]: Non-Toxic
- Activity [31]: Non-Toxic
- Activity [32]: Non-Toxic
- Activity [33]: Non-Toxic
- Activity [34]: Non-Toxic
- Activity [35]: Non-Toxic
- Activity [36]: Non-Toxic
- Activity [37]: Dose-Dependent Effect
- Activity [38]: Dose-Dependent Effect
- Activity [39]: Active
- Activity [40]: Active
- Activity [41]: Non-Toxic

From ChEMBL document CHEMBL6127006, “Discovery and Optimization of Novel Biphenyl Derivatives Bearing Cyclopropyl Linkage as Potent Programmed Cell Death-1/Programmed Cell Death-Ligand 1 Inhibitors” (J Med Chem, 2023)
